Test results taken from patent US10562912B2 (C&C Research Laboratories, priority 2013, dated 2020).

Columns and labels:
Assay type in all cases: cell-based
[1] = test system: LNCaP; assay: Cell growth inhibition assay, prostate cancer cell line LNCaP (medium with 10 ng/mL IL-6); conditions: Homo sapiens, medium supplemented with 10 ng/mL of IL-6, 10,000 cells/well
[2] = test system: DU-145; assay: Cell growth inhibition assay, prostate cancer cell line DU-145; conditions: Homo sapiens, DU-145 prostate cancer cell line
Procedure, shortened: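 Seed DU-145/HCT116 3,000 cells/well, SW626 5,000 cells/well; add compound dilution series; incubate 72–96 h, 37° C., 5% CO2; microscope check for precipitate; CellTiter-Glo, luminescence. Blank = no cells; vehicle = 0.1% DMSO.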

[3] = biological target: T1, STAT3 (Homo sapiens, UniProt P40763); assay: STAT3 reporter gene assay (luciferase), LNCaP stable cell line (pSTAT3-TA-luc), IL-6 stimulation
T1 construct: plasmid pSTAT3-TA-luc), which contains a stably operating STAT3 promoter; endogenous in cells
Procedure, shortened: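 Cytotoxicity was run on a duplicate plate with CellTiter-Glo, while the other plate gave luciferase read-outs from lysed LNCaP pSTAT3-TA-luc reporter cells. Cells were treated with graded compound concentrations plus IL-6 (10 ng/mL final) for 24–48 h in 3% DCC-FBS medium. Unstimulated and stimulated wells served as negative and positive controls.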

[4] = test system: MDA-MB-231; assay: Cell growth inhibition assay, breast cancer cell line MDA-MB-231; conditions: Homo sapiens; MDA-MB-231 breast cancer cell line, 5,000 cells/well

T1 sequence (P40763 whole entry): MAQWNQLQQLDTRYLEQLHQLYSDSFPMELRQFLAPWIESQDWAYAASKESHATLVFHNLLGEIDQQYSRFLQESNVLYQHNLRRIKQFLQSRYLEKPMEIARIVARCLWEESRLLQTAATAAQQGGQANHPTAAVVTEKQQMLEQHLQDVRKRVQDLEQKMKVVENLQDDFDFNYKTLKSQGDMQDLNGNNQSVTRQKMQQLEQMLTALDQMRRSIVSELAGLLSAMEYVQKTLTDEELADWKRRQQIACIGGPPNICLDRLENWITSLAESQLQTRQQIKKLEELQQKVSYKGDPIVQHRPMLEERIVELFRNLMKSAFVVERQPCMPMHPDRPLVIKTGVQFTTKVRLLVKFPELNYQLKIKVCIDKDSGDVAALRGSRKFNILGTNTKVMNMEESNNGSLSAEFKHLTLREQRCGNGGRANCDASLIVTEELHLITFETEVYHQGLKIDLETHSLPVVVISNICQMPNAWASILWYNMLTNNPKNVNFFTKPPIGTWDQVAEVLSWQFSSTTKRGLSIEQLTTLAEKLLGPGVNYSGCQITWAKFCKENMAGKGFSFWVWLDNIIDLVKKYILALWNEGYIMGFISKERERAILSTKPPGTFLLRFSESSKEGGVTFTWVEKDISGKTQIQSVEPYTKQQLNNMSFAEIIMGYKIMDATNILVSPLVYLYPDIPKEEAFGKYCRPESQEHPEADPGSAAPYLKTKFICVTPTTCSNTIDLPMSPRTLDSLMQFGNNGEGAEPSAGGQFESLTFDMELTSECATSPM

SMILES	IC50 [1] [µM]	IC50 [2] [µM]	IC50 [3] [µM]	IC50 [4] [µM]
CC(C)(c1ccc(F)cc1)c1cc(Br)cc(NC(=O)c2cc3cc(NS(C)(=O)=O)ccc3s2)c1 [Example 32, N-(3-bromo-5-(2-(4-fluorophenyl)propan-2-yl)phenyl)-5-(methylsulfonamido)benzo[b]thiophene-2-carboxamide]	0.15	0.044	0.034	0.021
COc1cc2cc(C(=O)Nc3cc(Br)cc(C(C)(C)c4ccc(F)cc4)c3)[nH]c2cc1NS(C)(=O)=O [Example 19, N-(3-bromo-5-(2-(4-fluorophenyl)propan-2-yl)phenyl)-5-methoxy-6-(methylsulfonamido)-1H-indole-2-carboxamide]	0.52	0.15	0.12	0.088
CC(C)(c1ccc(F)cc1)c1cc(Cl)cc(NC(=O)c2cc3ccc(NS(C)(=O)=O)cc3[nH]2)c1 [Example 21, N-(3-chloro-5-(2-(4-fluorophenyl)propan-2-yl)phenyl)-6-(methylsulfonamido)-1H-indole-2-carboxamide]	0.9	0.19	0.22	0.054
CC(C)(c1cc(Br)cc(NC(=O)c2cc3cc(NS(C)(=O)=O)ccc3s2)c1)c1cccc(OCC(N)=O)c1 [Example 43, N-(3-(2-(3-(2-amino-2-oxoethoxy)phenyl)propan-2-yl)-5-bromophenyl)-5-(methylsulfonamido)benzo[b]thiophene-2-carboxamide]	5.8	4.9	2.7	3.6
COc1cc(OC(F)(F)F)cc(C(C)(C)c2cccc(NC(=O)c3cc4cc(NS(C)(=O)=O)ccc4s3)c2)c1 [Example 33, N-(3-(2-(3-methoxy-5-(trifluoromethoxy)phenyl)propan-2-yl)phenyl)-5-(methylsulfonamido)benzo[b]thiophene-2-carboxamide]	0.15	0.037	0.035	0.003
COc1cc(NC(=O)c2cc3ccc(NS(C)(=O)=O)cc3[nH]2)cc(C(C)(C)c2cc(OC)cc(OC(F)(F)F)c2)c1 [Example 13, N-(3-methoxy-5-(2-(3-methoxy-5-(trifluoromethoxy)phenyl)propan-2-yl)phenyl)-6-(methylsulfonamido)-1H-indole-2-carboxamide]	0.48		0.22	0.03
CC(C)(c1cccc(NC(=O)c2cc3cc(NS(C)(=O)=O)ccc3s2)c1)c1ccc(F)cc1F [Example 27, N-(3-(2-(2,4-difluorophenyl)propan-2-yl)phenyl)-5-(methylsulfonamido)benzo[b]thiophene-2-carboxamide]	0.67		0.08	0.033
CC(C)(c1cc(Br)cc(NC(=O)c2cc3ccc(NS(C)(=O)=O)cc3[nH]2)c1)c1cccc(OCC(N)=O)c1 [Example 18, N-(3-(2-(3-(2-amino-2-oxoethoxy)phenyl)propan-2-yl)-5-bromophenyl)-6-(methylsulfonamido)-1H-indole-2-carboxamide]	9.6		5.4	8.7
CC(C)(c1cccc(NC(=O)c2cc3cc(NS(C)(=O)=O)ccc3o2)c1)c1ccc(F)cc1F [Example 29, N-(3-(2-(2,4-difluorophenyl)propan-2-yl)phenyl)-5-(methylsulfonamido)benzofuran-2-carboxamide]	3.8		0.53	0.47
COc1cccc(C(C)(C)c2cccc(NC(=O)c3cc4ccc(NS(C)(=O)=O)cc4[nH]3)c2)c1 [Example 12, N-(3-(2-(3-methoxyphenyl)propan-2-yl)phenyl)-6-(methylsulfonamido)-1H-indole-2-carboxamide]	1.4		0.26	0.034
CC(C)(c1ccccc1)c1cccc(NC(=O)c2cc3ccc(NS(C)(=O)=O)cc3[nH]2)c1 [Example 2, 6-(methylsulfonamido)-N-(3-(2-phenylpropan-2-yl)phenyl)-1H-indole-2-carboxamide]	5.3		0.2	0.14

The remaining lines, values ahead:

IC50 [1] [µM]	IC50 [2] [µM]	IC50 [3] [µM]	IC50 [4] [µM]	SMILES
5.6	1.7	2.5	1.5	CN1CCN(Cc2cccc(C(C)(C)c3cc(Br)cc(NC(=O)c4cc5cc(NS(C)(=O)=O)ccc5s4)c3)c2)CC1 [Example 115, N-(3-bromo-5-(2-(3-((4-methylpiperazin-1-yl)methyl)phenyl)propan-2-yl)phenyl)-5-(methylsulfonamido)benzo[b]thiophene-2-carboxamide]
0.17	0.046	0.048	0.036	CCC(CC)(c1cc(NC(=O)c2cc3cc(NS(C)(=O)=O)ccc3s2)cc(OC)c1)c1cc(OC)cc(OC(F)(F)F)c1 [Example 54, N-(3-methoxy-5-(3-(3-methoxy-5-(trifluoromethoxy)phenyl)pentan-3-yl)phenyl)-5-(methylsulfonamido)benzo[b]thiophene-2-carboxamide]
0.37		0.28	0.019	COc1cc(NC(=O)c2cc3cc(NS(C)(=O)=O)ccc3s2)cc(-c2ccc(F)cc2F)c1 [Example 317, N-(2′,4′-difluoro-5-methoxy-[1,1′-biphenyl]-3-yl)-5-(methylsulfonamido)benzo[b]thiophene-2-carboxamide]
> 10		> 10	6.3	CS(=O)(=O)Nc1ccc2c(Cl)c(C(=O)Nc3cccc(-c4ccc(F)cc4F)c3)sc2c1 [Example 111, 3-chloro-N-(2′,4′-difluoro-[1,1′-biphenyl]-3-yl)-6-(methylsulfonamido)benzo[b]thiophene-2-carboxamide]
7		3.6	4.6	COc1cc(NC(=O)c2sc3cc(NS(C)(=O)=O)ccc3c2C)cc(-c2ccc(F)cc2F)c1 [Example 316, N-(2′,4′-difluoro-5-methoxy-[1,1′-biphenyl]-3-yl)-3-methyl-6-(methylsulfonamido)benzo[b]thiophene-2-carboxamide]
2.6	1.2	0.23	2.2	CC(C)(C)OC(=O)N1CCN(Cc2cccc(C(C)(C)c3cc(Br)cc(NC(=O)c4cc5ccc(NS(C)(=O)=O)cc5[nH]4)c3)c2)CC1 [Example 117, tert-butyl 4-(3-(2-(3-bromo-5-(6-(methylsulfonamido)-1H-indole-2-carboxamido)phenyl)propan-2-yl)benzyl)piperazine-1-carboxylate]
0.031		0.008	0.006	CC(C)(c1cc(Br)cc(NC(=O)c2cc3cc(NS(C)(=O)=O)ccc3s2)c1)c1cc(OC(F)(F)F)ccc1F [Example 47, N-(3-bromo-5-(2-(2-fluoro-5-(trifluoromethoxy)phenyl)propan-2-yl)phenyl)-5-(methylsulfonamido)benzo[b]thiophene-2-carboxamide]
3.7		3.6	0.14	CS(=O)(=O)Nc1ccc2cc(C(=O)Nc3cc(-c4ccc(F)cc4F)cc(C(F)(F)F)c3)[nH]c2c1 [Example 313, N-(2′,4′-difluoro-5-(trifluoromethyl)-[1,1′-biphenyl]-3-yl)-6-(methylsulfonamido)-1H-indole-2-carboxamide]
2.8		0.4	0.32	C#Cc1cc(NC(=O)c2cc3ccc(NS(C)(=O)=O)cc3[nH]2)cc(-c2ccc(F)cc2F)c1 [Example 365, N-(5-ethynyl-2′,4′-difluoro-[1,1′-biphenyl]-3-yl)-6-(methylsulfonamido)-1H-indole-2-carboxamide]
> 10		> 10	2.6	CS(=O)(=O)Nc1ccc2cc(C(=O)Nc3cc(-c4ccc(C#N)nc4)cc(-c4ccc(F)cc4F)c3)[nH]c2c1 [Example 359, N-(5-(6-cyanopyridin-3-yl)-2′,4′-difluoro-[1,1′-biphenyl]-3-yl)-6-(methylsulfonamido)-1H-indole-2-carboxamide]
8.6		6.8	> 10	COc1cc(NS(C)(=O)=O)cc2cc(C(=O)Nc3cccc(-c4ccc(F)cc4F)c3)oc12 [Example 112, N-(2′,4′-difluoro-[1,1′-biphenyl]-3-yl)-7-methoxy-5-(methylsulfonamido)benzofuran-2-carboxamide]
6.4		7.2	1.6	Cc1c(C(=O)Nc2cccc(-c3ccc(F)cc3F)c2)sc2ccc(NS(C)(=O)=O)cc12 [Example 243, N-(2′,4′-difluoro-[1,1′-biphenyl]-3-yl)-3-methyl-5-(methylsulfonamido)benzo[b]thiophene-2-carboxamide]
5.4		1.8	2.7	Cc1c(C(=O)Nc2cccc(-c3ccc(F)cc3F)c2)sc2cc(NS(C)(=O)=O)ccc12 [Example 241, N-(2′,4′-difluoro-[1,1′-biphenyl]-3-yl)-3-methyl-6-(methylsulfonamido)benzo[b]thiophene-2-carboxamide]
0.35		0.19	0.086	CS(=O)(=O)Nc1ccc2sc(C(=O)Nc3cc(OC(F)F)cc(C4(c5ccc(F)cc5)CC4)c3)cc2c1 [Example 429, N-(3-(difluoromethoxy)-5-(1-(4-fluorophenyl)cyclopropyl)phenyl)-5-(methylsulfonamido)benzo[b]thiophene-2-carboxamide]
